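Exposure lasted 48 hours, with cells grown in 96-well plates and compounds tested at five concentrations. GI50 is the concentration that inhibits growth by half.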 Active and inactive are the calls of the source. Cut-off read from the data, not from the text of the source: active = GI50 up to about 1.1 µM and inactive = higher.
Assays:
Assay in all cases: NCI tumour cell line growth inhibition, 48 h
786-0 = test system: 786-0
A498 = test system: A498
A549 = test system: A549
ACHN = test system: ACHN
CAKI-1 = test system: CAKI-1
CCRF-CEM = test system: CCRF-CEM
COLO 205 = test system: COLO 205
DU-145 = test system: DU-145
EKVX = test system: EKVX
HCC 2998 = test system: HCC 2998
HCT-116 = test system: HCT-116
HCT-15 = test system: HCT-15
HL-60 = test system: HL-60
HOP-62 = test system: HOP-62
HOP-92 = test system: HOP-92
HT-29 = test system: HT-29
Hs-578T = test system: Hs-578T
IGROV-1 = test system: IGROV-1
K562 = test system: K562
KM12 = test system: KM12
LOX IMVI = test system: LOX IMVI
M14 = test system: M14
MDA-MB-231 = test system: MDA-MB-231
MDA-MB-435 = test system: MDA-MB-435
MDA-N = test system: MDA-N
MOLT-4 = test system: MOLT-4
Malme-3M = test system: Malme-3M
NCI-H226 = test system: NCI-H226
NCI-H23 = test system: NCI-H23
NCI-H460 = test system: NCI-H460
NCI-H522 = test system: NCI-H522
NCI/ADR-RES = test system: NCI/ADR-RES
OVCAR-3 = test system: OVCAR-3
OVCAR-4 = test system: OVCAR-4
OVCAR-5 = test system: OVCAR-5
OVCAR-8 = test system: OVCAR-8
PC-3 = test system: PC-3
RPMI-8226 = test system: RPMI-8226
RXF 393 = test system: RXF 393
SF-268 = test system: SF-268
SF-295 = test system: SF-295
SF-539 = test system: SF-539
SK-MEL-28 = test system: SK-MEL-28
SK-MEL-2 = test system: SK-MEL-2
SK-MEL-5 = test system: SK-MEL-5
SK-OV-3 = test system: SK-OV-3
SN12C = test system: SN12C
SNB-19 = test system: SNB-19
SNB-75 = test system: SNB-75
SR = test system: SR
SW-620 = test system: SW-620
T47D = test system: T47D
U-251 = test system: U-251
UACC-257 = test system: UACC-257
UACC-62 = test system: UACC-62
UO-31 = test system: UO-31
MCF7 = test system: MCF7
TK-10 = test system: TK-10

For `CCCCCCCCCCCCCCCCP(=O)(O)OCC(N)C(=O)O` (configuration not stated), the GI50 (786-0) was 42 µM (inactive), the GI50 (A498) was 23.6 µM (inactive) and the GI50 (A549) was 46.2 µM (inactive). The GI50 (ACHN) was 22.3 µM (inactive), the GI50 (CAKI-1) was 19.1 µM (inactive) and the GI50 (CCRF-CEM) was 33.5 µM (inactive). For the same molecule, the GI50 (COLO 205) was 46.1 µM (inactive), the GI50 (DU-145) was > 100 µM (inactive) and the GI50 (EKVX) was > 100 µM (inactive). For the same molecule, the GI50 (HCC 2998) was 40.5 µM (inactive), the GI50 (HCT-116) was 19.6 µM (inactive) and the GI50 (HCT-15) was 31.3 µM. The GI50 (HL-60) was 18.7 µM (inactive), the GI50 (HOP-62) was 23.4 µM (inactive) and the GI50 (HOP-92) was 23.7 µM (inactive). For the same molecule, the GI50 (HT-29) was 55.3 µM (inactive), the GI50 (Hs-578T) was 54 µM (inactive) and the GI50 (IGROV-1) was 14.1 µM (inactive). The GI50 (K562) was > 100 µM (inactive), the GI50 (KM12) was 20.3 µM (inactive) and the GI50 (LOX IMVI) was 17.1 µM (inactive). For the same molecule, the GI50 (M14) was 50.2 µM (inactive), the GI50 (MDA-MB-231) was 32.1 µM (inactive) and the GI50 (MDA-MB-435) was 37.3 µM (inactive). The GI50 (MDA-N) was 33.2 µM (inactive), the GI50 (MOLT-4) was 17.3 µM (inactive) and the GI50 (Malme-3M) was > 100 µM (inactive). The GI50 (NCI-H226) was 25.5 µM (inactive), the GI50 (NCI-H23) was 90.4 µM (inactive) and the GI50 (NCI-H460) was 22.8 µM (inactive). The GI50 (NCI-H522) was 12.1 µM (inactive), the GI50 (NCI/ADR-RES) was > 100 µM (inactive) and the GI50 (OVCAR-3) was 23.6 µM (inactive). The GI50 (OVCAR-4) was 37.9 µM (inactive), the GI50 (OVCAR-5) was 21.1 µM (inactive) and the GI50 (OVCAR-8) was > 100 µM (inactive). The GI50 (PC-3) was 14.9 µM (inactive), the GI50 (RPMI-8226) was 21 µM (inactive) and the GI50 (RXF 393) was 33.7 µM (inactive). The GI50 (SF-268) was 27.7 µM (inactive), the GI50 (SF-295) was 20.7 µM (inactive) and the GI50 (SF-539) was 26.6 µM (inactive). For the same molecule, the GI50 (SK-MEL-28) was > 100 µM (inactive), the GI50 (SK-MEL-2) was 26.4 µM (inactive) and the GI50 (SK-MEL-5) was 33 µM (inactive). For the same molecule, the GI50 (SK-OV-3) was 56.1 µM (inactive), the GI50 (SN12C) was 41.5 µM (inactive) and the GI50 (SNB-19) was 16.9 µM (inactive). The GI50 (SNB-75) was 26.9 µM (inactive), the GI50 (SR) was 13.7 µM (inactive) and the GI50 (SW-620) was 28.7 µM (inactive). The GI50 (T47D) was > 100 µM (inactive), the GI50 (U-251) was 29.8 µM (inactive) and the GI50 (UACC-257) was > 100 µM (inactive). The GI50 (UACC-62) was 44.5 µM (inactive) and the GI50 (UO-31) was 16 µM (inactive).

With `CC1=CC(=O)CC(C)(C)C1/C=C/C(C)=C/C=C/C(C)=C/C=C/C=C(C)/C=C/C=C(C)/C=C/C1=C(C)CC(O)CC1(C)C` (configuration not stated) the GI50 (786-0) was 22 µM (inactive), the GI50 (A498) was 94.2 µM (inactive) and the GI50 (ACHN) was 28.6 µM (inactive). For the same molecule, the GI50 (CAKI-1) was 39.3 µM (inactive), the GI50 (CCRF-CEM) was 24.9 µM (inactive) and the GI50 (DU-145) was 24.4 µM (inactive). For the same molecule, the GI50 (EKVX) was 57.3 µM (inactive), the GI50 (HCC 2998) was 23.8 µM (inactive) and the GI50 (HCT-116) was 18.4 µM (inactive). The GI50 (HCT-15) was 24.1 µM, the GI50 (HL-60) was 18.6 µM (inactive) and the GI50 (HOP-62) was 47 µM (inactive). The GI50 (HOP-92) was 27.3 µM (inactive), the GI50 (HT-29) was 30.8 µM (inactive) and the GI50 (Hs-578T) was 38.9 µM (inactive). The GI50 (IGROV-1) was 39.1 µM (inactive), the GI50 (K562) was 0.745 µM (active) and the GI50 (KM12) was 31.8 µM (inactive). The GI50 (LOX IMVI) was 31.3 µM (inactive), the GI50 (M14) was 33 µM (inactive) and the GI50 (MCF7) was 16.3 µM (inactive). For the same molecule, the GI50 (MDA-MB-231) was 64.3 µM (inactive), the GI50 (MDA-MB-435) was 25 µM (inactive) and the GI50 (MDA-N) was 29.9 µM (inactive). For the same molecule, the GI50 (MOLT-4) was 0.0853 µM (active), the GI50 (NCI-H226) was > 100 µM (inactive) and the GI50 (NCI-H23) was 27.9 µM (inactive). The GI50 (NCI-H460) was 38.3 µM (inactive), the GI50 (NCI-H522) was 23.2 µM (inactive) and the GI50 (NCI/ADR-RES) was 51.5 µM (inactive). The GI50 (OVCAR-3) was 25.2 µM (inactive), the GI50 (OVCAR-4) was 37.9 µM (inactive) and the GI50 (OVCAR-5) was 57.3 µM (inactive). The GI50 (OVCAR-8) was 32.2 µM (inactive), the GI50 (PC-3) was 45.3 µM (inactive) and the GI50 (RPMI-8226) was 9.31 µM (inactive). For the same molecule, the GI50 (RXF 393) was 20.1 µM (inactive), the GI50 (SF-268) was 50.9 µM (inactive) and the GI50 (SF-295) was 60.8 µM (inactive). The GI50 (SF-539) was 47.2 µM (inactive), the GI50 (SK-MEL-28) was 28.4 µM (inactive) and the GI50 (SK-MEL-2) was > 100 µM (inactive). For the same molecule, the GI50 (SK-MEL-5) was 33 µM (inactive), the GI50 (SK-OV-3) was > 100 µM (inactive) and the GI50 (SR) was 0.0422 µM (active). For the same molecule, the GI50 (SW-620) was 15.7 µM (inactive), the GI50 (T47D) was 30.9 µM (inactive) and the GI50 (TK-10) was 50.2 µM (inactive). The GI50 (U-251) was 37.8 µM (inactive), the GI50 (UACC-257) was 37.7 µM (inactive) and the GI50 (UO-31) was 44.8 µM (inactive).

With `CN(C)CC(NC(NCS)C(=O)NCCNc1ccc(NCCNC(=O)C(NCS)NC(CN(C)C)OCCl)c2c1C(=O)c1c(O)ccc(O)c1C2=O)OCCl` (configuration not stated) the GI50 (786-0) was 0.0552 µM (active), the GI50 (A498) was 0.0635 µM (active) and the GI50 (A549) was < 0.001 µM (active). The GI50 (ACHN) was < 0.001 µM (active), the GI50 (CAKI-1) was < 0.001 µM (active) and the GI50 (COLO 205) was 1.34 µM (inactive). For the same molecule, the GI50 (DU-145) was 0.0365 µM (active), the GI50 (EKVX) was 0.228 µM (active) and the GI50 (HCC 2998) was 0.237 µM (active). For the same molecule, the GI50 (HCT-116) was 0.0249 µM (active), the GI50 (HCT-15) was 0.13 µM and the GI50 (HOP-62) was 0.0151 µM (active). For the same molecule, the GI50 (HT-29) was 0.0261 µM (active), the GI50 (Hs-578T) was 0.243 µM (active) and the GI50 (IGROV-1) was 0.145 µM (active). For the same molecule, the GI50 (K562) was 0.00678 µM (active), the GI50 (KM12) was 0.172 µM (active) and the GI50 (LOX IMVI) was 0.0245 µM (active). For the same molecule, the GI50 (M14) was 0.124 µM (active), the GI50 (MCF7) was 0.01 µM (active) and the GI50 (MDA-MB-231) was 0.0547 µM (active). For the same molecule, the GI50 (MDA-MB-435) was 0.151 µM (active), the GI50 (MDA-N) was 0.267 µM (active) and the GI50 (Malme-3M) was 0.0605 µM (active). For the same molecule, the GI50 (NCI-H226) was 0.0585 µM (active), the GI50 (NCI-H23) was 0.00877 µM (active) and the GI50 (NCI-H460) was < 0.001 µM (active). For the same molecule, the GI50 (NCI/ADR-RES) was 1.58 µM (inactive), the GI50 (OVCAR-3) was 0.387 µM (active) and the GI50 (OVCAR-4) was 0.502 µM (active). For the same molecule, the GI50 (OVCAR-5) was 0.525 µM (active), the GI50 (OVCAR-8) was 0.00377 µM (active) and the GI50 (PC-3) was 0.256 µM (active). For the same molecule, the GI50 (RPMI-8226) was 0.0016 µM (active), the GI50 (SF-268) was 0.0557 µM (active) and the GI50 (SF-295) was 0.00518 µM (active). The GI50 (SK-MEL-28) was 0.0229 µM (active), the GI50 (SK-MEL-2) was 1.45 µM (inactive) and the GI50 (SK-MEL-5) was 0.113 µM (active). For the same molecule, the GI50 (SK-OV-3) was 0.147 µM (active), the GI50 (SN12C) was 0.0311 µM (active) and the GI50 (SNB-19) was 0.0301 µM (active). For the same molecule, the GI50 (SNB-75) was 0.0318 µM (active), the GI50 (SW-620) was 0.00461 µM (active) and the GI50 (T47D) was 0.0327 µM (active). For the same molecule, the GI50 (TK-10) was 0.619 µM (active), the GI50 (U-251) was 0.102 µM (active) and the GI50 (UACC-257) was 0.929 µM (active). For the same molecule, the GI50 (UACC-62) was 0.0301 µM (active) and the GI50 (UO-31) was 0.0331 µM (active).
